Several values for one entry are separate records, joined by “and”; a condition that tells them apart may be missing. Equal values may be shown once. Read-outs that look alike come from different tables or passages of the source. Values belong to the compound of their own block, whether it stands above or below them.
How the values were obtained:
[1] = biological target: hDHODH (Homo sapiens, UniProt Q02127); test: DHODH enzyme inhibition assay, hDHODH; format: biochemical; conditions: Table 1; read-out: IC50 hDHODH
Sequence of hDHODH (Q02127 whole entry): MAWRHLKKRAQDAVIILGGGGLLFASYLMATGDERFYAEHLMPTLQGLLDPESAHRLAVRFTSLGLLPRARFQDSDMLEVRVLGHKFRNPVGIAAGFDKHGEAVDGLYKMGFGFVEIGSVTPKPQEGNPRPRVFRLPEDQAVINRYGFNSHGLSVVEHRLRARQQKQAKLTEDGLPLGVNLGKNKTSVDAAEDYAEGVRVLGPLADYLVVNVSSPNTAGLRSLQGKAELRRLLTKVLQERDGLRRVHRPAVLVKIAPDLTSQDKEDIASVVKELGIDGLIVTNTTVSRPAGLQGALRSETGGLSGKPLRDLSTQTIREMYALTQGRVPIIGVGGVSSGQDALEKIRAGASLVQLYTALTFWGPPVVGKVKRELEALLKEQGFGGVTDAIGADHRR
Description: (§1) Briefly, the assay solution contained 100 mM HEPES, pH 8.0, 150 mM NaCl, 10% glycerol, 0.1% Triton X-100, 20 micro molar COQD (coenzyme QD), 200 micro molar L-dihydroorotate, and 120 micro molar DCIP. Reactions are initiated by addition of enzyme to a final concentration in the range of about […] to about 50 nM while maintaining the temperature of a circulating water bath at 25° C.
(§2) Assay solutions were prepared as discussed above, except that DCIP is not present and the solution is depleted of oxygen by the inclusion of an oxidase/reductase system, such as, 0.1 mg/ml of glucose oxidase, 0.02 mg/ml catalase and 50 mM glucose. The data obtained is fitted to equation 1, to determine the IC50 values of the representative compounds.

[2] = biological target: T1, PfDHODH (Plasmodium falciparum, UniProt Q08210); test: biochemical
T1 sequence (Q08210 24-569): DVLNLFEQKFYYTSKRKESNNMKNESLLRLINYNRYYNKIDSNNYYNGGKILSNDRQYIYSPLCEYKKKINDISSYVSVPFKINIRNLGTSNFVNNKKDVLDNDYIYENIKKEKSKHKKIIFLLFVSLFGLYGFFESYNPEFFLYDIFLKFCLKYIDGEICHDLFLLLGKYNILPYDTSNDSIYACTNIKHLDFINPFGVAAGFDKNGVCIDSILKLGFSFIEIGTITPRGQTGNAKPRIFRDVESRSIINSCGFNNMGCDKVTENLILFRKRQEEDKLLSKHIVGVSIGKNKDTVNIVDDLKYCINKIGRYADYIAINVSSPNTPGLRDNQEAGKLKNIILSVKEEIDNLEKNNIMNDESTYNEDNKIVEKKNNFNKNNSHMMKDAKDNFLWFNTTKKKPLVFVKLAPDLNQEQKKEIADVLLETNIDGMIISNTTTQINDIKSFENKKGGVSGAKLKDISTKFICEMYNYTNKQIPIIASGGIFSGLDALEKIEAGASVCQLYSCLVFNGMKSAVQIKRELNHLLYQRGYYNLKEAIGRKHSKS
Description: as §1, §2

[3] = test system: P. falciparum; test: Inhibition of cell proliferation, 3H-hypoxanthine uptake in P. falciparum-infected erythrocytes; format: cell-based
From the text: [formula] II. In Vitro Evaluation of Compound Efficacy on the Human Malaria Parasite, P. falciparum.

[4] = biological target: PbDHODH (Plasmodium berghei, UniProt A0A509AEH5); test: DHODH enzyme inhibition assay, PbDHODH; format: biochemical, P. berghei; conditions: Table 3, average of the determinations; read-out: PbDHODH IC50 Ave (converted)
Sequence of PbDHODH (A0A509AEH5 entry or part of it): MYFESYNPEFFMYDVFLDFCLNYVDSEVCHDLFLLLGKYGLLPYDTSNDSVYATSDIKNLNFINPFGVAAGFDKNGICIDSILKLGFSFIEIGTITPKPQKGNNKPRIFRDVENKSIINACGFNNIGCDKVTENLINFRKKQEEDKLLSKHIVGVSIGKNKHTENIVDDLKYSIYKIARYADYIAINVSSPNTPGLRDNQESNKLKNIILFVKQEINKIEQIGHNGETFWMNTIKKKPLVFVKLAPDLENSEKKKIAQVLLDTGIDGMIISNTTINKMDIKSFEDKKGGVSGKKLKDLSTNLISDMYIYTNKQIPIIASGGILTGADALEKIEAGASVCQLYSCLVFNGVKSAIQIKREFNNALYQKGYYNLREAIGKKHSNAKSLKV
Description: as §1, §2

[5] = Pharmacokinetic analysis after single oral dose in mice; format: in vivo; conditions: for peak plasma concentration: FIG. 1A
Description: Pharmacokinetics of the inventive compounds was studied individually in non-fasted male Swiss outbred mice weighing 23-33 g. Mice had access to food and water ad libitum throughout the pre- and post-dose sampling period. Compounds were administered orally by gavage (0.1 mL dose volume per mouse) in a suspension of aqueous vehicle (0.5% w/v sodium caboxymethylcellulose, 0.5% v/v benzyl alcohol and 0.4% v/v Tween 80). A single blood sample was collected from each mouse via cardiac puncture at each indicated time point and transferred to heparinised tubes. Blood samples were centrifuged immediately, supernatant plasma was removed and stored at −20° C. until analysis (within 1-2 weeks). Plasma samples were assayed by LC-MS following protein precipitation with acetonitrile and the concentration of drug in plasma was determined. Pharmacokinetic parameters were calculated on the basis of plasma concentration-time profiles that used the mean plasma concentration at each sample time.

[6] = test system: P. berghei; test: Standard P. berghei mouse model of infection; format: in vivo; conditions: mice, oral
Description: (A) The standard P. berghei mouse model for infection is utilized to evaluate the efficacy of candidate compounds, according to the invention, against parasites in vivo. See review of Fidock, et al. (2004) Nature Rev. Drug Discovery 3, 509-20. Compounds are dosed either orally or IP, with the exact regimens (e.g. frequency of dosing, drug concentrations at dosing) determined based on the pharmocokinetic profiles of the individual analogs. […] Inhibition of parasite growth is determined microscopically by staining a thin smear of blood obtained from the test animal using a Wright-Giemsa stain.

[7] = Table 5, read-out: PfDHODH IC50
[8] = Plasmodium falciparum, 3D7, Erythrocyte, Table 5, 3D7 cells, read-out: EC50 P. falciparum 3D7 cells
[9] = Plasmodium falciparum, 3D7, Erythrocyte, Table 3, 3D7, single determinations, read-out: P. falciparum 3D7 EC50 (converted)
[10] = Table 1, read-out: IC50 PfDHODH
[11] = Plasmodium falciparum, Erythrocyte, Table 1, read-out: EC50 P. falciparum
[12] = for a 2.5-fold increase in dose, 20 to 50 mg/kg

SMILES: CC1=NC2=NC=NC2C(Nc2ccc3ccccc3c2)=N1 (stereo not shown) [2-methyl-N-(naphthalen-2-yl)-9H-purin-6-amine]
IC50 [1]: > 200000 nM
IC50 ([2]; IC50 PfDHODH, Table 1): 440 ± 200 nM
EC50 ([3]; Plasmodium falciparum, Erythrocyte, read-out: EC50 P. falciparum): 1600 nM

SMILES: Cc1cc(Nc2ccc(OC(F)F)cc2)n2ncnc2n1 [Compound 20, (4-Difluoromethoxy-phenyl)-(5-methyl-[1,2,4]triazolo[1,5-a]pyrimidin-7-yl)-amine]
melting point: 200 °C

SMILES: Cc1cc(Nc2ccc3ccccc3c2)n2nccc2n1
IC50 ([2]; Table 3, single determinations, read-out: PfDHODH IC50): 400 ± 90 nM
IC50 [4]: 3300 nM
EC50 ([3]; Plasmodium falciparum, 3D7, Erythrocyte, Table 3, 3D7, average of the determinations, read-out: P. falciparum 3D7 EC50 Ave): 1000 nM
EC50 [3, 9]: 990 ± 6 nM
EC50 ([3]; Table 3, 3D7, single determinations, read-out: P. falciparum 3D7 EC50 (converted)): 1100 nM

SMILES: Cc1cc(Nc2ccc3ccccc3c2)n2ccnc2n1
IC50 ([2]; PfDHODH IC50, Table 3, single determinations): 160 nM and 140 nM
IC50 ([2]; Table 3, average of the determinations, read-out: PfDHODH IC50 Ave (converted)): 150 nM
IC50 [4]: 2800 nM
EC50 [3, 9]: 200 ± 1 nM

SMILES: Cc1cc(Nc2cccc(Cl)c2)n2ncnc2n1 [drawing 23]
melting point: 227 °C

SMILES: Cc1cc(Nc2ccc(F)c(C)c2)n2ncnc2n1
melting point: 231 °C

Now from value to compound, other results behind:

IC50 [2, 7]: 620 ± 80 nM
SMILES: Cc1nc2nc(C)c(Cl)c(Nc3ccc(C(F)(F)F)cc3)n2n1 [6-chloro-2,5-dimethyl-N-(4-(trifluoromethyl)phenyl)-[1,2,4]triazolo[1,5-a]pyrimidin-7-amine]
EC50 [3, 8]: 7100 ± 40 nM

IC50 [2, 7]: 340 ± 60 nM
SMILES: Cc1nc2ncnn2c(Nc2ccc(C(F)(F)F)cc2)c1Cl [6-chloro-5-methyl-N-(4-(trifluoromethyl)phenyl)-[1,2,4]triazolo[1,5-a]pyrimidin-7-amine]
EC50 [3, 8]: 2700 ± 30 nM

IC50 [2, 7]: 650 ± 310 nM
SMILES: Cc1cc(Nc2ccc(C(F)(F)F)cc2)n2nc(C)nc2n1 [2,5-dimethyl-N-(4-(trifluoromethyl)phenyl)-[1,2,4]triazolo[1,5-a]pyrimidin-7-amine]
EC50 [3, 8]: 930 ± 18 nM

IC50 [1]: > 200000 nM
IC50 [2, 10]: 100 nM
SMILES: Cc1cc(Nc2ccc3cc4ccccc4cc3c2)n2nc(C)nc2n1
EC50 [3, 11]: 230 ± 1.4 nM

IC50 [2, 7]: 3000 ± 460 nM
SMILES: Cc1nc2nc(C)c(C)c(Nc3ccc(C(F)(F)F)cc3)n2n1 [2,5,6-trimethyl-N-(4-(trifluoromethyl)phenyl)-[1,2,4]triazolo[1,5-a]pyrimidin-7-amine]
EC50 [3, 8]: 3600 ± 4 nM

IC50 [2, 7]: 70.6 nM
SMILES: Cc1cc(Nc2ccc(Br)c(C)c2)n2nc(C)nc2n1
EC50 [3, 8]: 80 to 120 nM

AUC0-last increase [5, 12]: 4.4 fold
Cmax increase [5, 12]: 3.5 fold
half-life ([5]; male, Swiss outbred, mouse, plasma, mice, oral, 50 mg/kg, read-out: apparent half-life): 2.95 h
AUC0-last ([5]; mice, oral, 20 mg/kg): 2690 µM·min
Cmax ([5]; mice, oral, 20 mg/kg): 7.9 ± 2.5 µM
apparent half-life ([5]; mice, oral, 20 mg/kg): 1.8 h
peak plasma concentration ([5]; mice, oral, 20 mg/kg): 11 micro molar
AUC0-last ([5]; mice, oral, 50 mg/kg): 11757 µM·min
Cmax ([5]; mice, oral, 50 mg/kg): 27.6 ± 5 µM
time with plasma concentration above 1 μM ([5]; mice, oral, 50 mg/kg): 16 h
peak plasma concentration ([5]; mice, oral, 50 mg/kg): 31 micro molar
SMILES: Cc1cc(Nc2ccc(C(F)(F)F)cc2)n2ncnc2n1 [drawing 22]
EC50 ([3]; Plasmodium falciparum, 3D7, Erythrocyte, Table 2, 3D7, read-out: P. falciparum 3D7 EC50 (converted)): 350 ± 3 nM
adverse reactions following oral administration ([5]; mice, oral, 20 mg/kg and 50 mg/kg): No adverse reactions were observed
parasite growth ([6]; 50 mg/kg, blood smear Wright-Giemsa stain, FIG. 1B): suppresses parasite growth
parasite growth, twice a day rather than a single dose ([6]; twice a day versus single dose): Greater suppression of parasite growth

IC50 [1]: > 200000 nM
IC50 [2, 10]: 120 ± 20 nM
SMILES: Cc1cc(Nc2ccc3ccccc3c2)n2nc(C)nc2n1
EC50 [3, 11]: < 150 nM

From US9216983B2, “Dihydroorotate dehydrogenase inhibitors with selective anti-malarial activity” (BOARD OF REGENTS, UNIVERSITY OF TEXAS SYSTEM, priority 2007, dated 2015)
